Experimental data: patent publication US6335350B1, “Acetamide and substituted acetamide-containing thiourea inhibitors of herpes viruses” (American Home Products Corporation, priority 1998, dated 2002)
In brackets after ≈: the same amount, converted by molar mass.

Experiments:
HSV-1 = assay: HSV Antiviral (ELISA) Assay; format: cell-based, herpes simplex virus type 1; details: Vero cells, HSV-1; for IC50: Human alphaherpesvirus 1, Vero, read-out: IC50 Ug/ml HSV
Experimental: Vero cells (ATCC #CCL-81) are plated on 96-well tissue culture plates at 3.5×10^4 cells per 100 μl tissue culture DMEM (Dulbecco's modified Eagle media) supplemented with 2% fetal bovine serum (FBS) in each well. After overnight incubation @ 37° C. (in 5% CO2) and 30 minutes prior to infection with HSV-1 (multiplicity of infection equal to 0.006), cells are either untreated, or treated with test compound (multiple concentrations) or reference standard drug control. After approximately 24 hours post-infection incubation @ 37° C. (in 5% CO2), cells are fixed for ELISA assay. The primary antibody is murine anti-HSV glycoprotein D monoclonal primary antibody and the secondary antibody is goat anti-mouse IgG linked to β-galactosidase. Thus the extent of viral replication is determined by assessing β-galactosidase activity by quantifying the generation of the 4-methyl umbelliferone fluorescent cleavage product after addition of the methyl umbelliferyl-β-D-galactoside (Sigma #M1633) substrate on a microfluorimeter (365 nm for excitation and 450 nm for emission). Antiviral activity (IC50) of the test compound is determined by comparing the flourescence obtained in absence of compound to that obtained in the presence of compound.

HCMV wild-type = assay: HCMV yield assay; format: cell-based, human cytomegalovirus; details: human foreskin fibroblasts; for IC50: Human betaherpesvirus 5, Fibroblast, read-out: IC50 Ug/ml HCMV
Experimental: Yield assay. Monolayer cultures of human foreskin fibroblasts are infected with HCMV wild-type, typically at a multiplicity of infection equal to 0.2, in the presence of inhibitor compound (varying concentrations). At three days post-infection, total virus produced in these cultures (i.e. virus yield) is assessed by harvesting and titering the virus in 12-well plates of cultured human foreskin fibroblasts (done in the absence of inhibitor). Plaques are quantified at 2 weeks post-infection. An inhibitor of HCMV is identified by the reduction in titer of virus yield in the presence, compared to the titer in the absence of compound. In this assay, the relative anti-HCMV activity of an inhibitor is typically determined by calculating the IC50 or IC90 value, that is, the amount of compound required to reduce the virus yield by 50% or 90%, respectively. Table I describes IC50 data for compounds tested against HCMV.

VZV strain Ellen = assay: VZV Antiviral (ELISA) Assay; format: cell-based, varicella-zoster virus; details: human foreskin fibroblast cells; for IC50 / inhibition at 10 µg/mL: Human alphaherpesvirus 3, Fibroblast; for IC50: read-out: IC50 Ug/ml VZV; for inhibition at 10 µg/mL: read-out: % inhibition 10 ug/ml VZV, 10 ug/ml
Experimental: For the generation of stock VZV to be used in the assay, VZV strain Ellen (ATCC #VR-1367) is used to infect human foreskin fibroblast (HFF) cells at low multiplicity (less than 0.1) and incubated overnight at 37° C. in 5% CO2. After the overnight incubation, the mixture of uninfected and VZV-infected HFF infected cells are then harvested and added to each well of 96-well plates (3.5×10^4 cells in 100 μl DMEM supplemented with 2% FBS) which contain test compound or the reference standard drug control (in 100 μl DMEM supplemented with 2% FBS per well). These cells are incubated for three days at 37° C. in 5% CO2, then fixed for ELISA assay. The primary antibody is murine anti-VZV glycoprotein II monoclonal antibody (Applied Biosystems, Inc. #13-145-100) and the secondary antibody is goat anti-mouse IgG linked to β-galactosidase. Thus the extent of viral replication is determined by assessing β-galactosidase activity by quantifying the generation of the 4-methyl umbelliferone fluorescent cleavage product after addition of the methyl umbelliferyl-β-D-galactoside (Sigma #M1633) substrate on a microfluorimeter (365 nm for excitation and 450 nm for emission). Antiviral activity (IC50) of the test compound is determined by comparing the flourescence obtained in absence of compound to that obtained in the presence of compound.

IC50 (HSV-1) [µg/mL] | IC50 Ug/ml HSV (HSV-1) [Ug/ml] | SMILES | IC50 (HCMV wild-type) [µg/mL] | IC50 (VZV strain Ellen) [µg/mL] | inhibition at 10 µg/mL (VZV strain Ellen) [%] | IC50 Ug/ml HCMV (HCMV wild-type) [Ug/ml] | % inhibition 10 ug/ml VZV (VZV strain Ellen; 10 ug/ml) [%] | IC50 Ug/ml VZV (VZV strain Ellen) [Ug/ml]
> 50 |  | CC(=O)Nc1ccc(NC(=S)Nc2ccc(N(C)C)c(Cl)c2)cc1 [Example 240, N-{4-[3-(3-Chloro-4-dimethylamino-phenyl)-thioureido]-phenyl}-acetamide] | 1.5 (≈ 4.13 µM) | > 10 | 5 |  |  | 
> 10 |  | COc1ccc(NC(=S)Nc2ccc(NC(C)=O)cc2)c(NCc2ccccc2)c1 [Example 245, N-{4-[3-(2-Benzylamino-4-methoxy-phenyl)-thioureido]-phenyl}-acetamide] | > 10 | 3.5 (≈ 8.32 µM) | 73 |  |  | 
> 50 |  | COc1cc(OC)c(NC(=S)Nc2ccc(NC(C)=O)c(C#N)c2)cc1Cl [Example 259, N-{4-[3-(5-Chloro-2,4-dimethoxy-phenyl)-thioureido]-2-cyano-phenyl}-acetamide] | > 50 | > 10 | 28 |  |  | 
> 10 |  | CCN(c1ccc(NC(=S)Nc2ccc(NC(C)=O)cc2)cc1Cl)C1CCCCC1 [Example 267, N-(4-{3-[3-Chloro-4-(cyclohexyl-ethyl-amino)-phenyl]-thioureido}-phenyl)-acetamide] | > 10 | > 10 | 25 |  |  | 
> 10 |  | CCOc1ccc(NC(=S)Nc2ccc(NC(C)=O)cc2)cc1Cl [Example 268, N-{4-[3-(3-Chloro-4-ethoxy-phenyl)-thioureido]-phenyl}-acetamide] | 10 (≈ 27.5 µM) | > 10 | 14 |  |  | 
 | >50 | C=CCN(c1ccc(NC(=S)Nc2ccc(NC(C)=O)cc2)cc1Cl)C1CCCCC1 [Example 273, N-(4-{3-[4-(Allyl-cyclohexyl-amino)-3-chloro-phenyl]-thioureido}-phenyl)-cetamide] |  |  |  | >10 | 46 | >10
5 (≈ 12.2 µM) |  | COc1cc(OC)c(NC(=S)Nc2ccc(NC(C)=O)c(OC)c2)cc1Cl [Example 274, N-{4-[3-(5-Chloro-2,4-dimethoxy-phenyl)-thioureido]-2-methoxy-phenyl}-acetamide] | > 50 | > 10 | 15 |  |  | 
10 (≈ 24.1 µM) |  | COc1cc(OC)c(NC(=S)Nc2ccc(NC(C)=O)c(Cl)c2)cc1Cl [Example 275, N-{2-Chloro-4-[3-(5-chloro-2,4-dimethoxy-phenyl)-thioureido]-phenyl}-acetamide] | > 10 | > 10 | 32 |  |  | 
> 10 |  | CC(=O)Nc1ccc(NC(=S)Nc2ccc(N3CCCC4CCCCC43)c(Cl)c2)cc1 (centres unmarked) [Example 282, N-(4-{3-[3-Chloro-4-(octahydro-quinolin-1-yl)-phenyl]-thioureido}-phenyl)-acetamide] | > 10 | > 10 | 50 |  |  | 

More lines, now with the values behind:

SMILES | IC50 (HSV-1) [µg/mL] | IC50 Ug/ml HSV (HSV-1) [Ug/ml] | IC50 (HCMV wild-type) [µg/mL] | IC50 (VZV strain Ellen) [µg/mL] | inhibition at 10 µg/mL (VZV strain Ellen) [%] | IC50 Ug/ml HCMV (HCMV wild-type) [Ug/ml] | % inhibition 10 ug/ml VZV (VZV strain Ellen; 10 ug/ml) [%] | IC50 Ug/ml VZV (VZV strain Ellen) [Ug/ml]
CC(=O)Nc1ccc(NC(=S)Nc2ccc(N3CCCCC3)c(Cl)c2)cc1 [Example 239, N-{4-[3-(3-Chloro-4-piperidin-1-yl-phenyl)-thioureido]-phenyl}-acetamide] | 25 (≈ 62 µM) |  | > 10 | > 10 | 33 |  |  | 
CC(=O)Nc1ccc(NC(=S)Nc2ccc(NCc3ccccc3)c(Cl)c2)cc1 [Example 241, N-{4-[3-(4-Benzylamino-3-chloro-phenyl)-thioureido]-phenyl}-acetamide] | 10 (≈ 23.5 µM) |  | 2 (≈ 4.71 µM) | > 10 | 24 |  |  | 
CC(=O)Nc1ccc(NC(=S)Nc2ccc(N3CCCC3)c(Cl)c2)cc1 [Example 242, N-{4-[3-(3-Chloro-4-pyrrolidin-1-yl-phenyl)-thioureido]-phenyl}-acetamide] | 50 (≈ 129 µM) |  | > 10 | > 10 | 20 |  |  | 
CC(=O)Nc1ccc(NC(=S)Nc2ccc(N3CCN(C)CC3)c(Cl)c2)cc1 [Example 243, N-(4-{3-[3-Chloro-4-(4-methyl-piperazin-1-yl)-phenyl]-thioureido}-phenyl)-acetamide] | > 50 |  | 40 (≈ 95.7 µM) | > 10 | 4 |  |  | 
CC(=O)Nc1ccc(NC(=S)Nc2ccc(OCC#N)c(Cl)c2)cc1 [Example 251, N-(4-{3-[3-Chloro-4-(2-nitrilo-ethoxy)-phenyl]-thioureido}-phenyl)-acetamide] | > 50 |  | 7 (≈ 18.7 µM) | > 10 | 22 |  |  | 
CCC(C)Oc1ccc(NC(=S)Nc2ccc(NC(C)=O)cc2)cc1Cl (centres unmarked) [Example 252, N-{4-[3-(4-sec-Butoxy-3-chloro-phenyl)-thioureido]-phenyl}-acetamide] | 10 (≈ 25.5 µM) |  | 10 (≈ 25.5 µM) | > 10 | 0 |  |  | 
COc1cc(OC)c(NC(=S)Nc2cc(OC)c(NC(C)=O)cc2OC)cc1Cl [Example 261, N-{4-[3-(5-Chloro-2,4-dimethoxy-phenyl)-thioureido]-2,5-dimethoxy-phenyl}-acetamide] | > 10 |  | > 10 | > 10 | 1 |  |  | 
CC(=O)Nc1ccc(NC(=S)Nc2ccc(Oc3ccc(Cl)cc3S(=O)(=O)O)c(Cl)c2)cc1 [Example 262, 2-{4-[3-(4-Acetylamino-phenyl)-thioureido]-2-chloro-phenoxy}-5-chloro-benzenesulfonic acid] | > 50 |  | > 50 | > 10 | 15 |  |  | 
CC(=O)Nc1ccc(NC(=S)Nc2ccc(Oc3cc(Cl)c(Cl)cc3S(=O)(=O)O)c(Cl)c2)cc1 [Example 263, 2-{4-[3-(4-Acetylamino-phenyl)-thioureido]-2-chloro-phenoxy}-4,5-dichloro-benzensulfonic acid] | > 50 |  | > 50 | > 10 | 20 |  |  | 
CC(=O)Nc1ccc(NC(=S)Nc2ccc(OCCO)c(Cl)c2)cc1 [Example 265, N-(4-{3-[3-Chloro-4-(2-hydroxy-ethoxy)-phenyl]-thioureido}-phenyl)-acetamide] | > 50 |  | > 50 | > 10 | 20 |  |  | 
CCCCOc1ccc(NC(=S)Nc2ccc(NC(C)=O)cc2)cc1Cl [Example 266, N-{4-[3-(4-Butoxy-3-chloro-phenyl)-thioureido]-phenyl}-acetamide] | 12 (≈ 30.6 µM) |  | > 10 | > 10 | 10 |  |  | 
CC(=O)Nc1ccc(NC(=S)Nc2ccc(OCc3ccccc3)c(Cl)c2)cc1 [Example 269, N-{4-[3-(4-Benzyloxy-3-chloro-phenyl)-thioureido]-phenyl}-acetamide] | > 10 |  | 5 (≈ 11.7 µM) | > 10 | 38 |  |  | 
COc1cc(NCc2ccccc2)c(NC(=S)Nc2ccc(NC(C)=O)cc2)cc1Cl [Example 271, N-{4-[3-(2-Benzylamino-5-chloro-4-methoxy-phenyl)-thioureido]-phenyl}-acetamide] | 7 (≈ 15.4 µM) |  | > 10 | 3.5 (≈ 7.69 µM) | 105 |  |  | 
CCCN(CCC)c1ccc(NC(=S)Nc2ccc(NC(C)=O)cc2)cc1Cl [Example 272, N-{4-[3-(3-Chloro-4-dipropylamino-phenyl)-thioureido]-phenyl}-acetamide] | > 50 |  | > 10 | > 10 | 50 |  |  | 
